Test results: patent publication US20110212909A1, “Use of Ginsenoside Compound K in the Preparation of a Medicament for the Prevention and Treatment of Atherosclerosis” (priority 2008, published 2011)
Marks after values point to notes of the source that are not given here.

Key:
perilipin mRNA = assay: Real-time quantitative PCR of perilipin mRNA in apo E−/− mouse aorta; format: in vivo; conditions: apo E−/− mice, 15 weeks
Source text: Total RNA sample of root of aorta of apo E^−/^− mouse: Total RNA samples of root of aorta in each group mouse were extracted, and utilized for analysis of gene expression of various lipid metabolic factors, inflammatory factors, and nucleic transcription factors associated with AS plaque development.

[1] = tested on: AS plaque in apo E−/− mouse aorta; assay: Morphology index image analysis of AS plaque at aortic root (HE and MASSON staining); format: in vivo; conditions: apo E−/− mice, 15 weeks
Procedure: 80 healthy clean grade C57BL/6J apo E^−/^− mice of 10 weeks old, wherein male and female mice were fifty-fifty, weight 20-22 g, were breed and divided into individual cage in sterile laminar flow rack, allowing mice to freely drink water and get food. Mice were raised for 30 weeks by “Western Diet” (routine mouse feed +0.15% cholesterol +21% fat) high fat feed (^60cobalt sterilization radiation treatment), with raising conditions being SPF grade, room temperature maintained at 24° C., relative humidity of 50%, and lighting time of 7: 30-19: 30. Animal house was sterilized by ultraviolet lamp once every two days, in order to maintain sterile environment of laminar flow rack (establishment of animal model of atherosclerosis refers to reference: Barish G D, Atkins A R, Downes M, Olson P, Chong L W, Nelson M, Zou Y H, Hwang H S, Kang H J, Curtiss L, Evans R M, Lee C H. PPARδ regulates multiple proinflammatory pathways to suppress atherosclerosis. Proc Natl Acad Sci, 2008, 105 (11): 4271-4276.).
5 mice of apo E^−/^− mice raised for 15 weeks were randomly selected and sacrificed, root of aorta of which was taken, and replication condition in AS model was observed by HE staining. The remaining mice were randomly divided into 5 groups as follows (n=15):
A. model group: vehicle; B. ginsenoside compound K low dose group: ginsenoside compound K 12.5 mg/kg/day; C. ginsenoside compound K middle dose group: ginsenoside compound K 25.0 mg/kg/day; D. ginsenoside compound K high dose group: ginsenoside compound K 50.0 mg/kg/day; E. simvastatin control group: simvastatin 10.0 mg/kg/day.
Above drugs were firstly solved in DMSO, then suspended in 0.5% carboxymethylcellulose solution, mixed homogeneously, and then were administered via gavage, once a day. Mice were weighted once a week, and ingestion amounts were recorded, and drug doses were adjusted according to weight, interfering for 15 weeks. All the animal were sacrificed in 30th week.
Tissues of apo E^−/^− mice were sliced for AS plaque pathology: blood of eye sockets venous plexus of apo E−/− mice was sampled before the mice was sacrificed by cervical dislocation, and aorta was fixed by converse infusion of physiological saline comprising 4% paraformaldehyde into left ventricle, and then whole aorta was cut off from root of aorta to terminal end of abdomen aorta. Root of aorta was taken, and embedded routinely by paraffin, and slices of thickness of 5 μm were continuously cut off from root of aorta, and were subjected separately to HE staining, and MASSON staining, and then were utilized for AS plaque morphological index analysis of aortic valve cross section.
Pathological staining: […]sequent 2 pieces of slices were picked up from each incisal surface of sequent paraffin slices of aorta root per mouse, and were separately subjected to HE staining, and MASSON staining, and were observed under light microscope. […]remaining aorta was stained by Sudan IV, and was observed under light microscope.
• blood fat assay: TC, TG, HDL-C, and LDL-C concentrations in serum were determined by applying Olympus Au2700 fully automatic biochemical appearance. • serum inflammatory markers assay: hs-CRP and sCD40L concentrations were determined by applying double antibody sandwich ELISA, in accordance with ELISA kit operating instruction (hs-CRP ELISA kit bought from Herrenberg company, Germany; sCD40L ELISA kit bought from Bender Medsystems company, Austria). • real-time quantitative PCR analysis was carried out on expression of CD36, perilipin, ABCA1, LXRα, MMP-9 and NF-κ B mRNA in apo E^−/^− mouse aorta (a reference method: Zhang Yiguan, Li Xiaohui, Fan Jishan, Zhang Haigang, Li Shuhui, Liao Wenqiang, Pang Yan, Jia Yi. Total panax notoginsenosides suppress atherosclerosis formation in rats by means of antiinflammatory and blood fat regulating action. Progress in Modern Biomedicine. […]

[2] = tested on: macrophage-derived foam cells of rat abdominal cavity; assay: Assay of amount of TC and CE in ox-LDL induced macrophage-derived foam cells; format: cell-based
Procedure: 1. Experiment animal: SD rats, male, 200-250 g, bought from the third Military Medical University Experiment Animal Center.
2. Reagents: RPMI 1640 culture medium free of phenol red bought from Invitrogen company; LDL (115 mg/mL) bought from Peking Union Medical College; total cholesterol kit and free cholesterol kit bought from Shanghai Mind Bioengineering Limited Company; ginsenoside compound K (hereinafter being called C-K for short. White powders, purity 99%), provided by Kunming Nuowei Jinshen Bioengineering limited company supply (batch number: NTGA070521, details see China invention patent 200710066011. X “a method of preparing rare ginsenoside compound K by streptomycete fermentation of Sanchi saponins”).
LDL was placed into PBS comprising 10 μM Cu^2+, dialysed at 37° C. for 12 h, then was placed into PBS comprising 0.01% EDTA, and dialysed at 4° C. for 24 hours before stopping oxidization, then was subjected to filtration sterilization, and stored for use.
4. Culture of macrophage and establishment of foam cells model (available literature: Jia Yi, Li Xiaohui, Xing Mao, Hei Xuefeng, Liu Ya, He Cuiyao. Studies on affect of various combinations of 3 sorts of monomers in total panax notoginsenosides on formation of mouse macrophage-derived foam cells. Journal of China Pharmacy, 2008, 19 (2), 881-883.)
each rat were intraperitoneally injected with 2 mL RPMI 1640 culture solution free of serum and phenol red, and it was sacrificed by cervical dislocation after 20 minutes, and was soaked in 75% ethanol for 10 minutes, then rat's belly was cut open, and fluids in abdominal cavity were collected, and centrifugated at 750 r/min for 5 minutes, and then cells were collected, and cells concentrations were adjusted to […] by using RPMI 1640 culture solution which were free of phenol red and comprised 10% Fetal Calf Serum. 10 pieces of 6 wells plate was added 1 mL cells suspension per well, and was placed into an incubator of 5% CO2 at 37 °C, and cultured for two hours, then supernatant was discarded, and nonadhesive cells was washed by using PBS. Original culture medium was discarded. Culture was carried out for 48 hours after adding 5 mL culture medium comprising 20 mg/L ox-LDL, and thereby foam cells were formed.
[…] were divided into ox-LDL model group, pyrrolidine dithiocarbamate (PDTC) (drugs source: Sigma), control group and C-K interference group. Each group had 5 pieces of plates. […]
Culture solution was aspirated, and lipid in foam cells was extracted by Folch method (reference: Folch J et al, A simple method for the isolation and purification of total lipides from animal tissues. J Biol Chem, 1957, 226 (1): 497-509), according to direction for use of kit.
Data was expressed as x±s, and variance analysis was carried out between groups by SPSS 13.0 software.

[3] = simvastatin 10.0 mg/kg/day gavage
[4] = C-K high dose 50.0 mg/kg/day gavage
[5] = C-K middle dose 25.0 mg/kg/day gavage

## CCC(C)(C)C(=O)O[C@H]1C[C@@H](C)C=C2C=C[C@H](C)[C@H](CC[C@@H]3C[C@@H](O)CC(=O)O3)[C@H]21 [simvastatin, reference compound]
Perilipin mRNA; [3]
  expression of perilipin mRNA in aorta (relative concentrations): 0.23 ± 1.32^b
[1]; [3]
  CA (aortic root collagen area): 0.57 ± 0.08^a mm^2
  CA/CVA (corrected collagen area): 34.73 ± 4.49^b %
  CVA (vessel cross section area): 1.65 ± 0.11 mm^2
  LCA (lipid core area): 0.32 ± 0.04^b mm^2
  LCA/PA (corrected lipid core area): 43.39 ± 4.01^b %
  PA (plaque area): 0.74 ± 0.17 mm^2
  PA/CVA (corrected plaque area): 44.70 ± 8.44^a %
  mFCT (minimal fibrous cap thickness): 27.72 ± 2.30^b μm

## CC(C)=CCC[C@](C)(OC1OC(CO)C(O)C(O)C1O)C1CC[C@]2(C)C1[C@H](O)CC1[C@@]3(C)CC[C@H](O)C(C)(C)C3CC[C@]12C (stereo partly drawn) [C-K, 20-O-β-D-glucopyranosyl 20-(S)-protopanaxadiol]
[2]; 25 nM as printed in text
  TC and CE amount in foam cells compared with model group: significantly lowered
[2]; 25 μM, 48 hours, rat foam cells, x ± s, n = 5, ox-LDL model group 15.24 ± 2.38
  CE in foam cells: 28.12 ± 3.12^a
[2]; 25 μM, 48 hours, rat foam cells, x ± s, n = 5, ox-LDL model group 59.56 ± 2.96
  CE/TC in foam cells: 47.01 ± 3.80^a %
[2]; 25 μM, 48 hours, rat foam cells, x ± s, n = 5, ox-LDL model group 87.20 ± 2.19
  TC in foam cells: 59.72 ± 2.38^a
Perilipin mRNA; [4]
  expression of perilipin mRNA in aorta (relative concentrations): 0.51 ± 0.54^a
Perilipin mRNA; C-K low dose 12.5 mg/kg/day gavage, model 1.08 ± 0.06
  expression of perilipin mRNA in aorta (relative concentrations): 0.68 ± 0.56^a
Perilipin mRNA; [5]
  expression of perilipin mRNA in aorta (relative concentrations): 0.60 ± 0.49^a
[1]; [4]
  CA (aortic root collagen area): 0.69 ± 0.13^b mm^2
  CA/CVA (corrected collagen area): 42.40 ± 6.74^b %
  CVA (vessel cross section area): 1.62 ± 0.12 mm^2
  LCA (lipid core area): 0.21 ± 0.03^b mm^2
  LCA/PA (corrected lipid core area): 40.01 ± 1.94^b %
  PA (plaque area): 0.52 ± 0.10^b mm^2
  PA/CVA (corrected plaque area): 32.29 ± 6.29^b %
  mFCT (minimal fibrous cap thickness): 30.65 ± 1.37^b μm
[1]; C-K low dose 12.5 mg/kg/day gavage, model 0.39 ± 0.13
  CA (aortic root collagen area): 0.56 ± 0.14^b mm^2
[1]; C-K low dose 12.5 mg/kg/day gavage, model 0.44 ± 0.05
  LCA (lipid core area): 0.32 ± 0.05^b mm^2
[1]; C-K low dose 12.5 mg/kg/day gavage, model 0.90 ± 0.12
  PA (plaque area): 0.78 ± 0.13^a mm^2
[1]; C-K low dose 12.5 mg/kg/day gavage, model 1.70 ± 0.19
  CVA (vessel cross section area): 1.68 ± 0.16 mm^2
[1]; C-K low dose 12.5 mg/kg/day gavage, model 20.40 ± 3.31
  mFCT (minimal fibrous cap thickness): 28.48 ± 1.89^b μm
[1]; C-K low dose 12.5 mg/kg/day gavage, model 22.60 ± 5.41
  CA/CVA (corrected collagen area): 33.33 ± 4.37^b %
[1]; C-K low dose 12.5 mg/kg/day gavage, model 48.28 ± 2.71
  LCA/PA (corrected lipid core area): 41.03 ± 1.32^b %
[1]; C-K low dose 12.5 mg/kg/day gavage, model 53.82 ± 10.02
  PA/CVA (corrected plaque area): 46.43 ± 7.38^a %
[1]; [5]
  CA (aortic root collagen area): 0.62 ± 0.09^b mm^2
  CA/CVA (corrected collagen area): 36.08 ± 4.82^b %
  CVA (vessel cross section area): 1.71 ± 0.14 mm^2
  LCA (lipid core area): 0.29 ± 0.05^b mm^2
  LCA/PA (corrected lipid core area): 40.33 ± 1.18^b %
  PA (plaque area): 0.72 ± 0.12^a mm^2
  PA/CVA (corrected plaque area): 42.26 ± 8.35^a %
  mFCT (minimal fibrous cap thickness): 30.44 ± 1.75^b μm
